The text below walks through data of patent publication US20240116985A1, “STAPLED PEPTIDES AND METHODS THEREOF” (priority 2020, published 2024).

Broadly, the chromatographic logD is a lipophilicity value derived from retention on a column. Read a high chromatographic logD as a more lipophilic compound. As usually defined, the EC50 is the midpoint of the concentration-response curve. The low end stands for greater potency, the high end for weaker potency.

A short description of one data set: CHI Log D procedure. The data set is classed as physicochemical. Conditions: for chromatographic logD: pH 7.4, CHI Log D; for CHI Log D: pH 7.4.
Data set [1] addresses T1, full-length B-Catenin (Uniprot ID P35222) (Homo sapiens, UniProt P35222).
T1 construct: 65 nM full-length B-Catenin (Uniprot ID P35222)
T1 sequence (P35222 1-781): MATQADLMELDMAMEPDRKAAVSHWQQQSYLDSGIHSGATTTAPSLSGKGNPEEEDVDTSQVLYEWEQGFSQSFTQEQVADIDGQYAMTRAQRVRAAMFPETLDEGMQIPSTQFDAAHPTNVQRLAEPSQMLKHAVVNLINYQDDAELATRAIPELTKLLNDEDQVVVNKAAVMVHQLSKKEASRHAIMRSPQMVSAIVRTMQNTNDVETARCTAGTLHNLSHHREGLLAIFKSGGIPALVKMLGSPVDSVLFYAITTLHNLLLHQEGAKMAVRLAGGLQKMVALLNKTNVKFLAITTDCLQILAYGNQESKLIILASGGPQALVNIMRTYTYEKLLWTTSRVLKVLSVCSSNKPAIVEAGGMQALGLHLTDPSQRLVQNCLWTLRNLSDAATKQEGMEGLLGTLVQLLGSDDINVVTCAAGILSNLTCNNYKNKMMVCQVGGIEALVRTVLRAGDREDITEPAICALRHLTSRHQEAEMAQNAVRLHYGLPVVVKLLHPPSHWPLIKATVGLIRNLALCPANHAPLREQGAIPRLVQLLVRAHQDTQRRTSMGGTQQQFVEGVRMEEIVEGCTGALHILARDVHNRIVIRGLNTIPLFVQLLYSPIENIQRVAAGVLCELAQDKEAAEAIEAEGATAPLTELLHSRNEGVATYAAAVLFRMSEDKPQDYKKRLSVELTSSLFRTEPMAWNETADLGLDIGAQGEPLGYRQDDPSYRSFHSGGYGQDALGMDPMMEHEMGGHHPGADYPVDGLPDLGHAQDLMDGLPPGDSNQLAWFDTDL
Put plainly: Alphascreen binding assay (beta-catenin / biotin-TCF4 10-53). As for the experimental part: In some embodiments, an assay is an Alphascreen binding assay. A useful protocol is described below as an example.
Alphascreen binding assay: Using the AlphaScreen Histidine (Nickel Chelate) Detection Kit (PerkinElmer), peptide solutions were prepared in buffer (50 mM Tris pH 8.0, 250 mM NaCl, 2% glycerol, 0.03% Tween-20, 0.01% TritonX-100, 0.1% BSA w/v) using a 3-fold serial dilution from 10 uM to 5 nM. Probe solution (65 nM full-length B-Catenin (Uniprot ID P35222), mixed with 10 nM biotin labeled TCF4 residues 10-53 (Uniprot ID Q9NQB0) peptide in buffer) was prepared and 4 uL per well was plated in a white polystyrene 384-well plate (Corning). Equal volume of the titrated peptide was added to the plate and incubated for 15 minutes at 20° C. Then 4 uL of donor and 4 uL acceptor beads at 10 ug/mL were added to the plate, for a 16 uL reaction pool and protected from light for 60 minutes at 20° C. prior to read. Reads were performed on a CLARIOstar plate reader (BMG Labtech) in duplicate, and data were fitted to a 1:1 binding model with hill slope using an in-house script. All provided concentrations are final concentrations.
Background: Alpha assays give light when donor and acceptor beads are brought close together.

For `CC(=O)N[C@@H](Cc1ccccc1)C(=O)N[C@@H](CC(=O)O)C(=O)N[C@@H](C)C(=O)NC12CN(C1)C(=O)OCC=CCCCCCC[C@@](C)(C(=O)N[C@@H](Cc1ccccc1)C(=O)N[C@@H](Cc1c[nH]c3ccccc13)C(=O)N[C@@H](CCC(N)=O)C(N)=O)NC(=O)[C@H](C(C)C)NC(=O)[C@H](Cc1ccccc1)NC(=O)[C@H](C)NC(=O)[C@H](C)NC(=O)[C@H](CC(=O)O)NC(=O)[C@H](CC(=O)O)NC2=O` [I-35, Ac-Phe-Asp-Ala-Az-Asp-Asp-Ala-Ala-Phe-Val-S8-Phe-Trp-Gln-NH2], the chromatographic logD in “CHI Log D procedure” turned out to be 1.33. Further, the midpoint of the response in data set [1], the EC50, lay at 9.54 µM.
As for `CC(=O)N1CCC[C@]12CC=CCCCC1(CCCC=CCOC(=O)N(C)CCC[C@@](C)(C(=O)N[C@@H](Cc3ccccc3)C(=O)N[C@@H](Cc3c[nH]c4ccccc34)C(=O)N[C@@H](CCC(N)=O)C(N)=O)NC(=O)[C@H](C(C)C)NC(=O)[C@H](Cc3ccccc3)NC(=O)[C@H](C)NC(=O)[C@H](C)NC(=O)[C@H](CC(=O)O)NC(=O)[C@H](CC(=O)O)NC1=O)NC(=O)[C@H](C)NC(=O)[C@H](CC(=O)O)NC2=O` (stereo partly drawn) [I-53, Ac-PL3-Asp-Ala-B5-Asp-Asp-Ala-Ala-Phe-Val-SeN-Phe-Trp-Gln-NH2], the “CHI Log D” value in “CHI Log D procedure” is 1.307. The response in data set [1] was half-maximal at 1.14 µM (EC50).
In the same order, the values of `CC(=O)N[C@@H](Cc1ccccc1)C(=O)N[C@@H](CC(=O)O)C(=O)N[C@@H](C)C(=O)N[C@]1(C)CCCCCCC=CCOC(=O)N2CC[C@@](C(=O)N[C@@H](CC3CCCCC3)C(=O)N[C@@H](Cc3c[nH]c4ccccc34)C(=O)N[C@@H](CCC(N)=O)C(N)=O)(C2)NC(=O)[C@H](C(C)C)NC(=O)[C@H](Cc2ccccc2)NC(=O)[C@H](C)NC(=O)[C@H](C)NC(=O)[C@H](CC(=O)O)NC(=O)[C@H](CC(=O)O)NC1=O` [I-61, Ac-Phe-Asp-Ala-R8-Asp-Asp-Ala-Ala-Phe-Val-PyrS-Cha-Trp-Gln-NH2] are 1.446 and 8.9 µM.
In the same order, the values of `CC[C@H](C)[C@H](NC(=O)[C@H](CC(=O)O)NC(=O)[C@H](C)NC(C)=O)C(=O)N[C@]1(C)CCN(C)C(=O)OCC=CCCCCC[C@@](C)(C(=O)N[C@@H](Cc2ccccc2)C(=O)N[C@@H](Cc2c[nH]c3ccccc23)C(=O)N[C@@H](Cc2c[nH]cn2)C(N)=O)NC(=O)[C@H](CCC(N)=O)NC(=O)[C@H](Cc2ccccc2)NC(=O)[C@H](C)NC(=O)[C@H](C)NC(=O)[C@H](CC(=O)O)NC(=O)[C@H](CC(=O)O)NC1=O` [I-65, Ac-Ala-Asp-Ile-RdN-Asp-Asp-Ala-Ala-Phe-Gln-S7-Phe-Trp-His-NH2] are 1.274 and 2.08 µM.
In the same order, the values of `CCCC[C@@H]1NC(=O)[C@H](CC(=O)O)NC(=O)[C@](C)(NC(=O)[C@@H](NC(=O)[C@H](CC(=O)O)NC(=O)[C@H](C)NC(C)=O)[C@@H](C)CC)CCN(C)C(=O)OCC=CCCCCC[C@@](C)(C(=O)N[C@@H](Cc2ccccc2)C(=O)N[C@@H](Cc2c[nH]c3ccccc23)C(=O)N[C@@H](Cc2c[nH]cn2)C(N)=O)NC(=O)[C@H](CCC(N)=O)NC(=O)[C@H](Cc2ccccc2)NC(=O)[C@H](C)NC(=O)[C@H](C)NC1=O` [I-69, Ac-Ala-Asp-Ile-RdN-Asp-nLeu-Ala-Ala-Phe-Gln-S7-Phe-Trp-His-NH2] are 1.593 and 9.1 µM.
For `CC(=O)N[C@@H](Cc1ccccc1)C(=O)N[C@@H](CC(=O)O)C(=O)N[C@@H](C)C(=O)N[C@]1(C)CCCCCCC=CCOC(=O)N2CC[C@@](C(=O)N[C@@H](Cc3ccccc3)C(=O)N[C@@H](Cc3c[nH]c4ccccc34)C(=O)N[C@@H](CCC(N)=O)C(N)=O)(C2)NC(=O)[C@H](C(C)C)NC(=O)[C@H](Cc2ccc(F)c(F)c2)NC(=O)[C@H](C)NC(=O)[C@H](C)NC(=O)[C@H](CC(=O)O)NC(=O)[C@H](CC(=O)O)NC1=O` [I-79, Ac-Phe-Asp-Ala-R8-Asp-Asp-Ala-Ala-34FF-Val-PyrS-Phe-Trp-Gln-NH2], in “CHI Log D procedure”, the chromatographic logD was determined as 1.27. Besides, in data set [1], the concentration for a half-maximal effect (EC50) is 3.97 µM.
Take `CC(=O)N[C@@H](Cc1ccccc1)C(=O)N[C@@H](CC(=O)O)C(=O)N[C@@H](C)C(=O)N[C@]1(C)CCCCCCC=CCOC(=O)N2CC[C@@](C(=O)N[C@@H](Cc3ccccn3)C(=O)N[C@@H](Cc3c[nH]c4ccccc34)C(=O)N[C@@H](CCC(N)=O)C(N)=O)(C2)NC(=O)[C@H](C(C)C)NC(=O)[C@H](Cc2ccccc2)NC(=O)[C@H](C)NC(=O)[C@H](C)NC(=O)[C@H](CC(=O)O)NC(=O)[C@H](CC(=O)O)NC1=O` [I-81, Ac-Phe-Asp-Ala-R8-Asp-Asp-Ala-Ala-Phe-Val-PyrS-2PyrA-Trp-Gln-NH2]: in “CHI Log D procedure”, the “CHI Log D” value was determined as 1.063. Besides, in data set [1], the EC50 came out at 9.77 µM.
On to `CC(=O)N[C@@H](Cc1ccccc1)C(=O)N[C@@H](CC(=O)O)C(=O)N[C@@H](C)C(=O)N[C@]1(C)CCCCCCC=CCOC(=O)N2CC[C@@](C(=O)N[C@@H](Cc3ccc(C(N)=O)cc3)C(=O)N[C@@H](Cc3c[nH]c4ccccc34)C(=O)N[C@@H](CCC(N)=O)C(N)=O)(C2)NC(=O)[C@H](C(C)C)NC(=O)[C@H](Cc2ccccc2)NC(=O)[C@H](C)NC(=O)[C@H](C)NC(=O)[C@H](CC(=O)O)NC(=O)[C@H](CC(=O)O)NC1=O` [I-89, Ac-Phe-Asp-Ala-R8-Asp-Asp-Ala-Ala-Phe-Val-PyrS-4CBMF-Trp-Gln-NH2], for which, in “CHI Log D procedure”, the “CHI Log D” value was found to be 0.967. For the same molecule, the midpoint of the response in data set [1], the EC50, lay at 5.64 µM.
On to `CC(=O)N[C@@H](Cc1ccccc1)C(=O)N[C@@H](CC(=O)O)C(=O)N[C@@H](C)C(=O)N[C@]1(C)CCCCCCC=CCOC(=O)N2CC[C@@](C(=O)N[C@@H](Cc3ccccc3)C(=O)N[C@@H](Cc3c[nH]c4ccccc34)C(=O)N[C@@H](CCC(N)=O)C(N)=O)(C2)NC(=O)[C@H](C(C)C)NC(=O)[C@H](Cc2ccc(C(N)=O)cc2)NC(=O)[C@H](C)NC(=O)[C@H](C)NC(=O)[C@H](CC(=O)O)NC(=O)[C@H](CC(=O)O)NC1=O` [I-91, Ac-Phe-Asp-Ala-R8-Asp-Asp-Ala-Ala-4CBMF-Val-PyrS-Phe-Trp-Gln-NH2], for which the “CHI Log D” value in “CHI Log D procedure” came to 1.13. The same molecule returned a half-maximal effective concentration (EC50) in data set [1] of 4.72 µM.
In the same order, the values of `CC(=O)N[C@@H](Cc1ccccc1)C(=O)N[C@@H](CC(=O)O)C(=O)N[C@@H](C)C(=O)N[C@]1(C)CCCCCCC=CCOC(=O)N2CC[C@@](C(=O)N[C@@H](Cc3ccccc3)C(=O)N[C@@H](Cc3c[nH]c4ccccc34)C(=O)N[C@@H](CCC(N)=O)C(N)=O)(C2)NC(=O)[C@H](C(C)C)NC(=O)[C@H](Cc2ccccc2)NC(=O)[C@H](C)NC(=O)[C@H](C)NC(=O)[C@H](CCc2ccccc2)NC(=O)[C@H](CC(=O)O)NC1=O` [I-97, Ac-Phe-Asp-Ala-R8-Asp-hPhe-Ala-Ala-Phe-Val-PyrS-Phe-Trp-Gln-NH2] are 2.062 and 7.01 µM.
With `COc1cccc(C[C@@H]2NC(=O)[C@H](C)NC(=O)[C@H](C)NC(=O)[C@H](CC(=O)O)NC(=O)[C@H](CC(=O)O)NC(=O)[C@](C)(NC(=O)[C@H](C)NC(=O)[C@H](CC(=O)O)NC(=O)[C@H](Cc3ccccc3)NC(C)=O)CCCCCCC=CCOC(=O)N3CC[C@@](C(=O)N[C@@H](Cc4ccccc4)C(=O)N[C@@H](Cc4c[nH]c5ccccc45)C(=O)N[C@@H](CCC(N)=O)C(N)=O)(C3)NC(=O)[C@H](C(C)C)NC2=O)c1` [I-103, Ac-Phe-Asp-Ala-R8-Asp-Asp-Ala-Ala-3OMeF-Val-PyrS-Phe-Trp-Gln-NH2], in “CHI Log D procedure”, the “CHI Log D” value worked out at 1.268. In data set [1], this molecule displayed a concentration for a half-maximal effect (EC50) of 4.94 µM.
For the molecule `COc1cccc(C[C@@H]2NC(=O)[C@H](C)NC(=O)[C@H](C)NC(=O)[C@H](CC(=O)O)NC(=O)[C@H](CC(=O)O)NC(=O)[C@](C)(NC(=O)[C@H](C)NC(=O)[C@H](CC(=O)O)NC(=O)[C@H](Cc3ccccc3)NC(C)=O)CCCCCCC=CCOC(=O)N3CC[C@@](C(=O)N[C@@H](Cc4ccccc4)C(=O)N[C@@H](Cc4c[nH]c5ccccc45)C(=O)N[C@@H](CCC(N)=O)C(N)=O)(C3)NC(=O)[C@H](C(C)C)NC2=O)c1` [I-104, Ac-Phe-Asp-Ala-R8-Asp-Asp-Ala-Ala-3OMeF-Val-PyrS-Phe-Trp-Gln-NH2], in “CHI Log D procedure”, the “CHI Log D” value stood at 1.333. This molecule came in with an EC50 in data set [1] of 6.17 µM.
